Tests used:
[1] = ESI-MS detection of peptide-Lipid-A complex formation; type: binding; conditions: CHL/MeOH/H2O solutions; D-Lipid-A 0.005 mg/mL
Protocol: In this example, electrospray ionization mass spectrometry experiments were carried out on Lipid-A (D-Lipid-A) and peptides WK-11, KK-12, KK-11 under a variety of solution and mass spectrometry conditions. Binding of D-Lipid-A to WK-11, KK-12, KK-11 peptides was observed by mass spectrometry methods, as quite abundant ion (LipidA-peptide) complexes were detected from CHL/MeOH/H2O solutions.
Materials: Three peptides KFFKKFFKFFKK (SEQ ID NO: 1; KK-12), WKKWWKKWWKK (SEQ ID NO: 2; WK-11), and KKKKFFFKFFK (SEQ ID NO: 3; KK-11) were ordered from a custom commercial synthesis. Diphosphoryl Lip-A (D-Lipid-A) (C94O25N2P2H178) was obtained from Sigma.
Chemicals: chloroform (CHL), methanol (MeOH), Water (H2O), triethylamine (TEA), ammonium acetate.
Instrumentation: Micro-TOF ESI-MS (Bruker Daltonics); Q-Star-XL nano-ESI-MS (AB-SCIEX).
Solubility studies were performed in order to optimize the solubility of both the peptides and diphosphoryl Lipid A. Solution conditions for electrospray ionization mass spectrometry experiments on diphosphoryl Lipid A and peptides were evaluated using (CHL)X(MeOH)Y(H2O)Z, where X=0-70%; Y=0-70%; and Z=0-95%.
In one experiment, Diphosphoryl Lipid A (0.005 mg/mL) and WK-11 (0.005 mg/mL) were dissolved in 70% CHL/30% MeOH/0.5% water and evaluated by ESI-MS. Electrospray ionization mass spectrometry (ESI-MS) of peptide WK-11 and Lipid-A and detection of complex formation is shown in FIG. 6. Single circles show fragments assigned to the peptide. Double circles show lipid A bound to peptide WK-11.
In another experiment, Diphosphoryl Lipid A (0.005 mg/mL) and KK-12 (0.005 mg/mL) were dissolved in 70% CHL/30% MeOH/0.5% water and evaluated by ESI-MS. Single circles show fragments assigned to the peptide. Double circles show lipid A bound to peptide KK-12.
In another experiment, Diphosphoryl Lipid A (0.005 mg/mL) and KK-11 (0.015 mg/mL) were dissolved in 30% CHL/68% MeOH/2% water and evaluated by ESI-MS. Single circles show fragments assigned to the peptide. Double circles show lipid A bound to peptide KK-11.

[2] = test system: THP-1 cell line; assay: Peptides block effect of LPS in THP-1 cell line; type: cell-based, human; conditions: THP-1 stimulated with LPS 1 mg/mL, treated after 24 hours with peptide 0.5 mg/mL
Protocol: THP-1 is a human monocytic cell line derived from an acute monocytic leukemia patient. It is typically used to test immunocytochemical analysis of protein-protein interaction and immunohistochemistry. THP-1 cell line can provide continuous culture, grown in suspension, for example, RPMI 1640+10% FBS+2 mM L-glutamine. The average doubling time is 35 to 50 hrs. To inhibit bacterial growth, 1 mM sodium pyruvate, penicillin (100 units/mL) or streptomycin (100 ug/mL) can be employed. Cultures are typically maintained at between 2-9×10^5 cells/mL at 37 degrees C., and 5% CO2. The cells are generally non-adhesive.
THP-1 cell line in culture was stimulated with 1 mg/mL LPS.
In contrast, THP-1 stimulated with LPS (1 mg/mL) and then treated after 24 hours with Peptide 1 (KK-12)(SEQ ID NO: 1) (0.5 mg/mL).

[3] = ESI-MS competition ranking of Lipid A-binding propensities of peptides; conditions: for relative binding affinity Ka with D-Lipid-A, competition KK-12 vs KK-11 / relative binding affinity Ka with D-Lipid-A, competition WK-11 vs KK-12 / relative binding affinity Ka with D-Lipid-A, competition WK-11 vs KK-11: 0.0032 mg/mL each peptide; for relative binding affinity Ka with D-Lipid-A, competition KK-12 vs KK-11: D-lipid-A 0.005 mg/mL; for relative binding affinity Ka with D-Lipid-A, competition WK-11 vs KK-12: D-lipid-A 0.001-0.0050 mg/mL, FIG. 20A; for relative binding affinity Ka with D-Lipid-A, competition WK-11 vs KK-12 / relative binding affinity Ka with D-Lipid-A, competition WK-11 vs KK-11: R-ratios; for rank order of relative binding affinities (Ka) to D-lipid-A, combined data of Example 4: combined competition data; for relative binding affinity Ka with D-Lipid-A, competition WK-11 vs KK-11: increasing D-lipid-A, FIG. 20B
Source text: ESI-MS based methods were used to rank binding affinities of peptides WK-11, KK-12, and KK-11 to diphosphoryl lipid A in CHL/MeOH/H2O, 45%/55%/0.05%, unless otherwise specified.
Materials and Chemicals were the same as shown in Example 3.
Instrumentation included Micro-TOF ESI-MS (Bruker Daltonics); FT-ICR-MS NanoDrop-2000 UV-Vis Spectrophotometer.
A series of ESI-MS competition experiments were designed to determine relative binding intensities of peptide-lipid A complexes in ESI-MS while varying the concentration of the D-lipid-A.
Then, an equal concentration of both peptides was employed, while increasing the concentration of the D-lipid-A in three experiments, as shown in FIGS. 12-14. Double circles surround lipid-A bound to peptide WK-11 (“1”) or lipid-A bound to KK-12 (“2”).
Resultant signal intensities of peptides and their complexes with D-lipid-A were used to plot R-ratios, determined as in Eq. 1, against D-Lipid-A concentrations.
R═Itotal(peptide:Lipid)/Itotal(peptide) [Eq. 1]
Comparison of the corresponding R-functions allows us to rank the peptides Ka binding constants, assuming that the value of the ratio between signal-response factors of complexes is approximately the same or deviates only weakly from the one for corresponding free peptides.
Then, an equal concentration of both peptides was employed, while increasing the concentration of the D-lipid-A in three experiments, two of which are shown in FIGS. 17-18. Double circles surround lipid-A bound to peptide WK-11 (“1”) or lipid-A bound to KK-11 (“2”).
Resultant signal intensities of peptides and their complexes with D-lipid-A were used to plot R-ratios, determined as in Eq. 1, against D-Lipid-A concentrations, as in Example 4B.

Substance | binding to Lipid A (complex formation detected by ESI-MS) [1] | effect on LPS-stimulated THP-1 cells (cell adherence, outer membrane shape and color) [2] | relative binding affinity Ka with D-Lipid-A, competition KK-12 vs KK-11 [3] | relative binding affinity Ka with D-Lipid-A, competition WK-11 vs KK-12 [3] | rank order of relative binding affinities (Ka) to D-lipid-A, combined data of Example 4 [3] | relative binding affinity Ka with D-Lipid-A, competition WK-11 vs KK-11 [3]
Angiotensin (DRVYIHPFHL; Angiotensin-1; UniProt P01019 25-34, looked up) [control standard peptide with size similar to KDEON peptides, reference compound] | no sign of binding propensity to D-Lipid-A |  |  |  |  | 
KFFKKFFKFFKK [KK-12] | specifically binds to Lipid A | appears to reverse the effects of LPS | Ka(KK-11)>Ka (KK-12) | Ka(WK-11)>Ka(KK-12) | Ka(WK-11)≧Ka(KK-11)>Ka(KK-12) | 
KKKKFFFKFFK [KK-11] | specifically binds to Lipid A |  | Ka(KK-11)>Ka (KK-12) |  | Ka(WK-11)≧Ka(KK-11)>Ka(KK-12) | Ka(WK-11)≧Ka(KK-11)
WKKWWKKWWKK [WK-11] | specifically binds to Lipid A |  |  | Ka(WK-11)>Ka(KK-12) | Ka(WK-11)≧Ka(KK-11)>Ka(KK-12) | Ka(WK-11)≧Ka(KK-11)

— patent US20160083429A1, “COMPOSITIONS AND METHODS FOR ENDOTOXIN NEUTRALIZATION” (Immunotrex Biologics, Inc., priority 2014, published 2016)
